# Where “and” joins values, the source holds several entries; their conditions need not be identical. Equal entries are not always repeated.
# Test system: SK-RC-52 xenografts
# Assay: Biodistribution of [64Cu]XYIMSR-06
# Format: in vivo, mice
# Protocol: Cell Lines and Mouse Models. Animal experiments were performed in accordance with protocols approved by the Johns Hopkins Animal Care and Use Committee (ACUC). Six-week-old female NOD/SCID mice were purchased from the Animal Resource Core of the Sidney Kimmel Comprehensive Cancer Center of Johns Hopkins and were subcutaneously injected in the lower left flank or upper right flank with 1×10^6 SK-RC-52 cells in RPMI 1640 GlutaMAX™ media (Life Technologies, Frederick, Md.) supplemented with 1% fetal bovine serum (FBS). Mice were monitored for tumor size and used for SPECT/CT imaging when the size of the tumor reached 100 mm^3.
# Biodistribution of [^64Cu]XYIMSR-06. Mice bearing SK-RC-52 xenografts within the upper right flank were injected intravenously with 740 kBq (20 μCi) of [^64Cu]XYIMSR-06 in 200 μL of PBS. For in vivo competition (binding specificity) studies, tumor-bearing mice were injected with 740 kBq (20 μCi) of [^64Cu]XYIMSR-06 and 200 nmole of 1 in 200 μL of PBS concurrently. At specific times after injection (1 h, 4 h, 8 h and 24 h), mice (n=5) were sacrificed by cervical dislocation with blood immediately collected by cardiac puncture. Heart, lungs, pancreas, spleen, fat, brain, muscle, small intestines, liver, stomach, kidney, urinary bladder, and tumor were also collected. Each organ was weighed and the tissue radioactivity was measured with an automated gamma counter (1282 Compugamma CS, Pharmacia/LKBNuclear, Inc., Mt. Waverly, Vic. Australia). The percentage of injected dose per gram of tissue (% ID/g) was calculated by comparison with samples of a standard dilution of the initial dose. All measurements were corrected for radioactive decay. Data were expressed as mean±standard deviation (SD). Prism software (GraphPAD, San Diego, Calif.) was used to determine statistical significance. Statistical significance was calculated using a paired t test. P-values […] were considered significant.
# [1] = 24 h + block (200 nmole of 1 co-injected)
smiles,measurement,setting,value
CC(CCC(=O)N[C@@H](CC(=O)N[C@@H](CC(=O)N[C@@H](CCCCn1cc(CCCC(=O)Nc2nnc(S(N)(=O)=O)s2)nn1)C(=O)NCCOCCOCCNC(=S)Nc1ccc(CC2CN(CC(=O)[O-])CCN(CC(=O)[O-])CCN2CC(=O)O)cc1)C(=O)O)C(=O)O)(c1ccc(O)cc1)c1ccc(O)cc1.[64Cu+2] (some centres unmarked) [[^64Cu]XYIMSR-06],Biodistribution: Brain,8 h post-injection,0.24 ± 0.06 % ID/g
same,Biodistribution: Fat,8 h post-injection,0.28 ± 0.27 % ID/g
same,Biodistribution: Heart,8 h post-injection,0.65 ± 0.10 % ID/g
same,Biodistribution: Kidney (kid),8 h post-injection,8.14 ± 1.15 % ID/g
same,Biodistribution: Liver,8 h post-injection,0.99 ± 0.22 % ID/g
same,Biodistribution: Lung,8 h post-injection,4.64 ± 0.58 % ID/g
same,Biodistribution: Muscle (mm),8 h post-injection,0.21 ± 0.05 % ID/g
same,Biodistribution: Pancreas,8 h post-injection,0.47 ± 0.21 % ID/g
same,Biodistribution: Sm. intestine,8 h post-injection,1.98 ± 0.14 % ID/g
same,Biodistribution: Spleen,8 h post-injection,0.18 ± 0.02 % ID/g
same,Biodistribution: Stomach,8 h post-injection,4.02 ± 0.53 % ID/g
same,Biodistribution: Tumor,8 h post-injection,16.74 ± 1.58 % ID/g
same,Tumor/Blood ratio,8 h post-injection,129.6±18.8
same,Tumor/kid (kidney) ratio,8 h post-injection,2.1±0.26
same,Tumor/mm (muscle) ratio,8 h post-injection,84.3±21.0
same,all other tumor-to-organ ratios tested,24 h,≥ 10.0
same,tumor-to-lung ratio,24 h,4.9
same,Biodistribution: Bladder,[1],0.45 ± 0.50 % ID/g
same,Biodistribution: Blood,[1],0.01 ± 0.08 % ID/g
same,Biodistribution: Brain,[1],0.02 ± 0.01 % ID/g
same,Biodistribution: Fat,[1],0.01 ± 0.01 % ID/g
same,Biodistribution: Heart,[1],0.08 ± 0.01 % ID/g
same,Biodistribution: Kidney (kid),[1],0.48 ± 0.09 % ID/g
same,Biodistribution: Liver,[1],0.42 ± 0.04 % ID/g
same,Biodistribution: Lung,[1],0.29 ± 0.05 % ID/g
same,Biodistribution: Muscle (mm),[1],0.04 ± 0.06 % ID/g
same,Biodistribution: Pancreas,[1],0.07 ± 0.02 % ID/g
same,Biodistribution: Sm. intestine,[1],0.19 ± 0.05 % ID/g
same,Biodistribution: Spleen,[1],0.11 ± 0.04 % ID/g
same,Biodistribution: Stomach,[1],0.29 ± 0.04 % ID/g
same,Biodistribution: Tumor,[1],1.20 ± 0.47 % ID/g
same,Tumor/Blood ratio,[1],27.1 ± 26.7
same,Tumor/kid (kidney) ratio,[1],2.4 ± 0.4
same,Tumor/mm (muscle) ratio,[1],49.0 ± 28.7
same,Biodistribution: Bladder,24 h post-injection,0.34 ± 0.09 % ID/g
same,Biodistribution: Blood,24 h post-injection,0.00 ± 0.06 % ID/g
same,Biodistribution: Brain,24 h post-injection,0.13 ± 0.02 % ID/g
same,Biodistribution: Fat,24 h post-injection,0.03 ± 0.01 % ID/g
same,Biodistribution: Heart,24 h post-injection,0.12 ± 0.03 % ID/g
same,Biodistribution: Kidney (kid),24 h post-injection,0.90 ± 0.12 % ID/g
same,Biodistribution: Liver,24 h post-injection,0.38 ± 0.03 % ID/g
same,Biodistribution: Lung,24 h post-injection,1.27 ± 0.38 % ID/g
same,Biodistribution: Muscle (mm),24 h post-injection,0.02 ± 0.01 % ID/g
same,Biodistribution: Pancreas,24 h post-injection,0.21 ± 0.29 % ID/g
same,Biodistribution: Sm. intestine,24 h post-injection,0.47 ± 0.03 % ID/g
same,Biodistribution: Spleen,24 h post-injection,0.09 ± 0.01 % ID/g
same,Biodistribution: Stomach,24 h post-injection,0.65 ± 0.04 % ID/g
same,Biodistribution: Tumor,24 h post-injection,6.2 % ID/g and 6.23 ± 1.41 % ID/g
same,Tumor/Blood ratio,24 h post-injection,142.6 ± 115.8
same,Tumor/kid (kidney) ratio,24 h post-injection,7.1 and 7.1 ± 2.5
same,Tumor/mm (muscle) ratio,24 h post-injection,261.3 ± 47.3
same,tumor uptake on co-injection of 200 nmole of 1,co-injection of 200 nmole of 1,blocked tumor uptake
same,radiotracer uptake within liver (in vivo stability of NOTA-64Cu chelation),within 24 h,no significant radiotracer uptake within liver

# — patent publication US20190192699A1, “NUCLEAR IMAGING AND RADIOTHERAPEUTICS AGENTS TARGETING CARBONIC ANHYDRASE IX AND USES THEREOF” (THE JOHNS HOPKINS UNIVERSITY, priority 2016, published 2019)
